According to a melting point compilation (Tetko et al.; mined from patent text by program, amines drawn as free bases though some values may be those of a salt):

melting point [°C] | Structure (SMILES)
248 to 251 | CC1(Cl)C(=S)Nc2ccc(Cl)cc21 (stereo not drawn)
125 to 132 | FC(F)(F)c1ccc(NC(=S)Nc2cc(C(F)(F)F)nc(C(F)(F)F)c2)cc1
125 to 127 | Cc1ccc(C(CCN2CCCC2)c2ncc[nH]2)cc1 (stereo not drawn)
145 to 148 | O=C(CCn1cnc2c(=O)[nH]cnc21)NCCCN1CCOCC1
236 to 237 | CCOc1ccc(-c2nc(-c3cc(C(=O)O)ccn3)cs2)cc1OCC
249 to 251 | CNC(=O)c1ccccc1S(=O)(=O)Cc1c(O[C@H](Cn2ccnc2)c2ccccc2)ccc2c1CCCC2=O
92 to 94 | COC(=O)Cc1ccc(C(F)(F)F)cc1NC(C)=O
98 to 100 | O=C(O)[C@@H]1C[C@@H](C(=O)O)N(C(=O)OCc2ccccc2)C1
218 to 219 | Cc1cc(C2=NNC(=O)C2)ccc1[N+](=O)[O-]
61 to 63 | CCOCCc1ccc(OCCNc2nc(C)nc(C)c2Cl)c(C)c1
228 to 230 | CC(=Cc1cc([N+](=O)[O-])ccc1Cl)C(=O)O
128 to 130 | NS(=O)(=O)c1ccc(-n2nc(C(F)(F)F)cc2-c2ccc(-c3cnco3)cc2)cc1
183 to 184 | O=[N+]([O-])c1ccc(-n2nccn2)cc1
100 | CS(=O)(=O)c1ccc(C(O)c2ccc3ccccc3c2)cc1 (stereo not drawn)
118 to 120 | CCc1oc2ccccc2c1C(C)(C)C(N)=NO
170 to 174 | CCN1C(=O)C2CCc3c(Br)ccc(OC)c3C2C1=O (stereo not drawn)
175 to 176 | Nc1cc(Br)cc(Br)c1O
123 to 124 | CC(C)OCCN1C(=O)N2CCOC2(c2ccccc2)c2cc([N+](=O)[O-])ccc21 (stereo not drawn)
166 to 170 | CN1CCC(=C2c3ccccc3C=Cc3ccc(I)cc32)CC1
198 to 199 | COc1ccc(CNc2nc(NCCCc3ccc(C(C)(C)O)cc3)nc3ncccc23)cc1OC
145 | CCC(=O)Nc1ccc(C(=O)c2nc(-c3cccc(C(=O)O)c3)c3ccccn23)cc1OC
260 to 264 | NC12CC3CC(C1)CC(O)(C3)C2
199 to 203 | CC(C)=CCNC(=O)CCC(NC(=O)C=Cc1ccco1)C(=O)NCC=C(C)C (stereo not drawn)

melting point [°C] | Structure (SMILES)
159 to 169 | O=C1C[C@H]2CN(C(=O)c3ccc(NC(=O)c4ccccc4-c4ccccc4)cc3)c3ccccc3C(=O)N2C1
123 to 135 | O=C(NCC(=O)N1CCN(C(=O)c2cc(C(F)(F)F)cc(C(F)(F)F)c2)[C@H](Cc2c[nH]c3ccccc23)C1)c1ccccc1
244 to 248 | C[C@H](NC(=O)c1ccc(N)cc1F)C(=O)O
135 to 137 | COc1c2c(cc3ccc(=O)oc13)CC(O)O2 (stereo not drawn)
81 to 82 | COc1ccc(Nc2ccc(C)cc2)cc1
118 to 119 | O=CN1CCC(Oc2c(F)c(F)c(F)c(F)c2F)(c2ccccc2)CC1
303 to 305 | O=C1CCC(N2Cc3cc(CNC(=O)c4ccccc4C(F)(F)F)ccc3C2=O)C(=O)N1 (stereo not drawn)
106 to 108 | CC1(C)OC(=O)N=C1c1ccccc1
130 | CCc1c(-c2cccnn2)ssc1=S
185 to 187 | Oc1ccc2nc(-c3cccc4ccccc34)oc2c1
131 | COc1ccc(-c2c(SCc3ccccc3)oc3cc(OCc4ccccc4)ccc3c2=O)cc1
165 to 167 | CC(=O)N[C@H]1C(n2cc(Cl)cnc2=O)O[C@H](COC(C)=O)[C@@H](OC(C)=O)[C@@H]1OC(C)=O (stereo partly drawn)
220 | O=C1CC(c2cccc(-n3ccnc3)c2)=Nc2cc(O)c(-c3ccccc3F)cc2N1
198 to 201 | N#CCc1ccc2oc3ncccc3c(=O)c2c1
243 to 245 | NC(=O)c1nnn(Cc2c(Cl)cccc2Cl)c1N
220 to 222 | COC(=O)c1ccc2c(c1)nc(C)n2N
76 to 77 | CCOC(=O)C(CC(C)C)NC(=O)N1CCc2cc(S(=O)(=O)N3CCN(c4cccc(Cl)c4)CC3)ccc21 (stereo not drawn)
108 to 109 | FC(F)(F)c1cc(C2CN(Cc3ccccc3)CO2)c2cccc(C(F)(F)F)c2n1 (stereo not drawn)
138 | COc1cc2c(C)c(-c3ccccc3)sc2c(Cl)c1Cl
89 to 92 | O=[N+]([O-])c1cc(C(F)(F)F)ccc1N1CCc2ccccc21
209 to 211 | COCCc1sc2ncnc(N)c2c1-c1ccc(NC(=O)Nc2cc(C(F)(F)F)ccc2F)cc1
80 to 82 | Nc1ccc(CCCCC(=O)O)nc1
188 to 190 | O=C1NC(=O)C(Cc2cccs2)N1 (stereo not drawn)

melting point [°C] | Structure (SMILES)
230 | CC(=O)N1c2ccccc2Sc2cc(O)c3ccccc3c21
256 to 257 | CSc1ccc2[nH]c(C(=O)O)cc(=O)c2c1
170 to 171 | COC(=O)c1cc(-c2ccccc2)c(=O)n2c1-c1sc(Br)cc1CC2
178 to 180 | CN1C(=O)CN(c2cccc(Cl)c2)NC1=O
239 to 243 | C=C1CN(c2c(F)cc3c(=O)c(C(=O)O)cn(C4CC4)c3c2F)CC1NC (stereo not drawn)
213 to 214 | CN1CCN(CCCC2CCN(C(=O)N3c4ccccc4C(=O)Nc4cccnc43)CC2)CC1
234 to 236 | COc1cc2ncc(C#N)c(Nc3cc(C)c(O)c(C)c3)c2cc1OC
130 to 131 | Cc1cc(SCC#Cc2ccc(C(F)(F)F)cc2)ccc1OCC(=O)O
96 | O=C(O)c1ccc2c(c1)OC(c1cc(F)cc(F)c1)(c1cc(F)cc(F)c1)O2
108 to 109 | O=C(O)CCNc1cccc(Br)n1
132 to 133 | CCOC(=O)Cc1c(-c2ccccc2)c2cc(C)c(Cl)cc2oc1=O
131 | OCc1cn2c(n1)sc1ccccc12
149 to 150 | CN(c1cccc2cc(C3=NCC(C)(CCOS(C)(=O)=O)S3)[nH]c12)S(=O)(=O)c1cccs1 (stereo not drawn)
183 to 186 | NC(=NCC(F)(F)F)Nc1nc(CCCCNc2nc3ccccc3[nH]2)cs1
263 to 265 | CC(=O)NC1CCN(c2ncc3ncnc(Nc4ccc(F)c(Cl)c4)c3n2)CC1
95 to 98 | C#Cc1cn(-c2c(Cl)cc(C(F)(F)F)cc2Cl)nc1C(F)(F)F
140 | CCc1c([N+](=O)[O-])c(C(N)=O)nn1CCOC
126 to 128 | CC(C)C(c1cncnc1C(F)(F)F)N1CCN(c2ccccc2)C1=O (stereo not drawn)
311 to 314 | Cc1ccc(OC2CCN(C(=O)C(=O)Nc3ccc4nc(S)[nH]c4c3)CC2)cc1
179 to 181 | Cn1nc(-c2cc(C(=O)O)c(Cl)cc2F)c(Cl)c1C(F)(F)F
169 to 171 | CC(C)c1cc(C(=O)Nc2ccc(C(=O)O)o2)oc1C(C)C
110 | CCCNC(=O)c1cc(-c2ccc(OC)cc2)nn(CC2CCCC2)c1=O

Structure (SMILES) | melting point [°C]
CCCCCn1c2ccc(C(=O)NN3CCCCC3)cc2c2ccc(OC)cc21 | 178 to 179
COc1cccc(C2=NN=C(C)Cc3cc(OC)c(OC)cc32)c1 | 133 to 135
Clc1ccc(C2=CCN(Cc3coc4ncccc34)CC2)cc1 | 116
CN1C(=O)N(c2ccc([N+](=O)[O-])c(C(F)(F)F)c2)C(=O)C1(C)CF (stereo not drawn) | 118 to 119
COc1ccc(C(=O)C2C(Cl)=CC=CC2(C)Cl)c(OC(=O)Cc2ccccc2)c1OC (stereo not drawn) | 106
